Measurements taken from ChEMBL document CHEMBL1817623, “Sesterterpenes from the tropical sponge Coscinoderma sp” (J Nat Prod, 2011).
Values after ≈ are worked out from the molar mass of the structure shown.

Columns and labels:
[1] = test system: Trichophyton mentagrophytes; experiment: Antimicrobial activity against Trichophyton mentagrophytes IFO 40996; format: functional
Micrococcus luteus = experiment: Antimicrobial activity against Micrococcus luteus IFO 12708; format: functional
Aspergillus fumigatus = experiment: Antimicrobial activity against Aspergillus fumigatus HIC 6094; format: functional
Staphylococcus aureus = experiment: Antimicrobial activity against Staphylococcus aureus ATCC 6538p; format: functional
K562 = experiment: Cytotoxicity against human K562 cells; format: functional; conditions: read-out: LC50 (the source's name)
Isocitrate lyase = Isocitrate lyase (Candida albicans, UniProt Q9P8Q7); experiment: Inhibition of Candida albicans isocitrate lyase
[2] = molecular target: Sodium/potassium-transporting ATPase; experiment: Inhibition of human Na(+)/K(+) ATPase assessed as reduction in ouabain-sensitive and K(+)-dependent cleavage of fluorescent pseudosubstrate 3-O-methylfluorescein phosphate by fluorometric method; format: protein-complex assay
Bacillus subtilis = experiment: Antimicrobial activity against Bacillus subtilis ATCC 6633; format: functional
Salmonella typhimurium = experiment: Antimicrobial activity against Salmonella Typhimurium ATCC 14028; format: functional, Salmonella enterica subsp. enterica serovar Typhimurium; conditions: Salmonella enterica
Trichophyton rubrum = experiment: Antimicrobial activity against Trichophyton rubrum IFO 9185; format: functional
Candida albicans = experiment: Antimicrobial activity against Candida albicans ATCC 10231; format: functional
Sortase A = molecular target: T1, Sortase A (Staphylococcus aureus, UniProt Q9S446); experiment: Inhibition of recombinant Staphylococcus aureus ATCC 6538p sortase lacking the N-terminal membrane anchor domain expressed in Escherichia coli cells TOP10 using Dabcyl-QALPETGEE-Edans substrate measured after 1 hr by fluorescence S13 spectrophotometry
T1 sequence (Q9S446 whole entry): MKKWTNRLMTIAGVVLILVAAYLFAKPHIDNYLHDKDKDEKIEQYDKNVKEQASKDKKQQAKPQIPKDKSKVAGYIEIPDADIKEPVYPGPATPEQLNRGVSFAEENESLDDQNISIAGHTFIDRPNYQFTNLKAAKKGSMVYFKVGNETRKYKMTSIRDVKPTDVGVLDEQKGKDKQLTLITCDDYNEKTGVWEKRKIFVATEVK

Proteus vulgaris = experiment: Antimicrobial activity against Proteus vulgaris ATCC 3851; format: functional
Escherichia coli = experiment: Antimicrobial activity against Escherichia coli ATCC 35270; format: functional

Sequence of Isocitrate lyase (Q9P8Q7 whole entry): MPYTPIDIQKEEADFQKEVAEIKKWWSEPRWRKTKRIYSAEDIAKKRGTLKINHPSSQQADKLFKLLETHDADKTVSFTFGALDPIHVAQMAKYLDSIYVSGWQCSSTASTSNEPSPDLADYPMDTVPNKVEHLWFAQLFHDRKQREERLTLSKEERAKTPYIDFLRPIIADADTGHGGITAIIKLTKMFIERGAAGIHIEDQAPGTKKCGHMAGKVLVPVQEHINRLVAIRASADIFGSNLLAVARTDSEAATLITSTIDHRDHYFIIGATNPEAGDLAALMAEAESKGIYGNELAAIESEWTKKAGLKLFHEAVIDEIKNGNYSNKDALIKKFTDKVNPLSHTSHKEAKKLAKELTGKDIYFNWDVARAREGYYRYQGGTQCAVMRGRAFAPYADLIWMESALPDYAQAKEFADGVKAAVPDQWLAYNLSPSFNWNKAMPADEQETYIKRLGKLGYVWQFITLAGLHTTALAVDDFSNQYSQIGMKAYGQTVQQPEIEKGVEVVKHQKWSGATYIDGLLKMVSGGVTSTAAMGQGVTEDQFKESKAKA

Structure (SMILES)	MIC [1]	MIC (Micrococcus luteus)	MIC (Aspergillus fumigatus)	MIC (Staphylococcus aureus)	CC50 (K562)	IC50 (Isocitrate lyase)	IC50 [2]	MIC (Bacillus subtilis)	MIC (Salmonella typhimurium)	MIC (Trichophyton rubrum)	MIC (Candida albicans)	IC50 (Sortase A)	MIC (Proteus vulgaris)	MIC (Escherichia coli)
CO[C@@H]1O[C@H](OC)[C@](O)(CC[C@H]2/C(=C/OS(=O)(=O)[O-])CC[C@H]3[C@]2(C)CC[C@H]2C(C)(C)CCC[C@]32C)[C@H]1O.[Na+]	> 100 µg/mL	> 100 µg/mL	> 100 µg/mL	> 100 µg/mL	15 µM	75 µM	6 µM	> 100 µg/mL	> 100 µg/mL	> 100 µg/mL	> 100 µg/mL	> 200 µM	> 100 µg/mL	> 100 µg/mL
CC1=CC[C@H]2C(C)(C)CCC[C@]2(C)[C@H]1C[C@@H](OS(=O)(=O)[O-])[C@H](C)CCC/C(C)=C\Cc1cc(O)ccc1O.[Na+]	> 100 µg/mL	> 100 µg/mL	> 100 µg/mL	> 100 µg/mL	> 200 µM	52 µM	5 µM	> 100 µg/mL	> 100 µg/mL	> 100 µg/mL	> 100 µg/mL	100 µM	> 100 µg/mL	> 100 µg/mL
CC1(C)CCC[C@]2(C)[C@H]3CC/C(=C\OS(=O)(=O)[O-])[C@H](CCC4=CC(=O)O[C@@H]4O)[C@@]3(C)CC[C@@H]12.[Na+]	> 100 µg/mL	> 100 µg/mL	> 100 µg/mL	> 100 µg/mL	59 µM	–	5 µM	> 100 µg/mL	> 100 µg/mL	> 100 µg/mL	> 100 µg/mL	> 200 µM	> 100 µg/mL	> 100 µg/mL
CC1(C)CCC[C@]2(C)[C@H]3CC/C(=C\OS(=O)(=O)[O-])[C@H](CCC4=CC(=O)OC4)[C@@]3(C)CC[C@@H]12.[Na+]	> 100 µg/mL	> 100 µg/mL	> 100 µg/mL	> 100 µg/mL	56 µM	150 µM	19 µM	> 100 µg/mL	> 100 µg/mL	> 100 µg/mL	> 100 µg/mL	> 200 µM	> 100 µg/mL	> 100 µg/mL
CO[C@@H]1C=C(CC[C@H]2/C(=C/OS(=O)(=O)[O-])CC[C@H]3[C@]2(C)CC[C@H]2C(C)(C)CCC[C@]32C)C(=O)O1.[Na+]	> 100 µg/mL	> 100 µg/mL	> 100 µg/mL	> 100 µg/mL	16 µM	64 µM	6 µM	> 100 µg/mL	> 100 µg/mL	> 100 µg/mL	> 100 µg/mL	> 200 µM	> 100 µg/mL	> 100 µg/mL
CO[C@H]1C=C(CC[C@H]2/C(=C/OS(=O)(=O)[O-])CC[C@H]3[C@]2(C)CC[C@H]2C(C)(C)CCC[C@]32C)C(=O)O1.[Na+]	> 100 µg/mL	> 100 µg/mL	> 100 µg/mL	> 100 µg/mL	45 µM	165 µM	17 µM	> 100 µg/mL	> 100 µg/mL	> 100 µg/mL	> 100 µg/mL	> 200 µM	> 100 µg/mL	> 100 µg/mL
CO[C@H]1C=C(CC[C@H]2/C(=C/OS(=O)(=O)[O-])CC[C@H]3[C@]2(C)CC[C@H]2C(C)(C)CCC[C@]32C)[C@@H](OC)O1.[Na+]	> 100 µg/mL	> 100 µg/mL	> 100 µg/mL	> 100 µg/mL	49 µM	87 µM	14 µM	> 100 µg/mL	> 100 µg/mL	> 100 µg/mL	> 100 µg/mL	> 200 µM	> 100 µg/mL	> 100 µg/mL
CC1(C)CCC[C@]2(C)[C@H]3CC/C(=C\OS(=O)(=O)[O-])[C@H](CCC4=CCNC4=O)[C@@]3(C)CC[C@@H]12.[Na+]	> 100 µg/mL	> 100 µg/mL	> 100 µg/mL	> 100 µg/mL	22 µM	62 µM	18 µM	> 100 µg/mL	> 100 µg/mL	> 100 µg/mL	> 100 µg/mL	> 200 µM	> 100 µg/mL	> 100 µg/mL
O=C(O)CC[N+](=O)[O-]	–	–	–	–	–	9 µM	–	–	–	–	–	–	–	–
CC1=CC[C@H]2C(C)(C)CCC[C@]2(C)[C@H]1C/C=C(\C)CCC/C(C)=C/Cc1cc(O)ccc1O	> 100 µg/mL	> 100 µg/mL	> 100 µg/mL	> 100 µg/mL	8 µM	> 200 µM	117 µM	> 100 µg/mL	> 100 µg/mL	> 100 µg/mL	> 100 µg/mL	> 200 µM	> 100 µg/mL	> 100 µg/mL
C=C1CC[C@H]2C(C)(C)CCC[C@]2(C)[C@H]1C[C@@H](OS(=O)(=O)[O-])[C@H](C)CCC/C(C)=C/Cc1cc(O)ccc1O.[Na+]	> 100 µg/mL	–	> 100 µg/mL	–	> 200 µM	45 µM	4 µM	–	–	> 100 µg/mL	> 100 µg/mL	98 µM	–	> 100 µg/mL
C[C@@H]1[C@H](O)[C@@H](C)/C=C/C=C/C=C/C=C/C=C/C=C/C=C/[C@H](O[C@@H]2O[C@H](C)[C@@H](O)[C@H](N)[C@@H]2O)C[C@@H]2O[C@](O)(C[C@@H](O)C[C@@H](O)[C@H](O)CC[C@@H](O)C[C@@H](O)CC(=O)O[C@H]1C)C[C@H](O)[C@H]2C(=O)O [AMPHOTERICIN B]	3.13 µg/mL (≈ 3.39 µM)	–	3.13 µg/mL (≈ 3.39 µM)	–	–	–	–	–	–	3.13 µg/mL (≈ 3.39 µM)	0.78 µg/mL (≈ 0.844 µM)	–	–	–
CC1(C)S[C@@H]2[C@H](NC(=O)[C@H](N)c3ccccc3)C(=O)N2[C@H]1C(=O)O [AMPICILLIN]	–	0.39 µg/mL (≈ 1.12 µM)	–	1.56 µg/mL (≈ 4.46 µM)	–	–	–	0.39 µg/mL (≈ 1.12 µM)	0.39 µg/mL (≈ 1.12 µM)	–	–	–	0.39 µg/mL (≈ 1.12 µM)	6.25 µg/mL (≈ 17.9 µM)
CC1=CC[C@H]2C(C)(C)CCC[C@]2(C)[C@H]1C/C=C(/C)CCC/C(C)=C/Cc1cc(O)ccc1O [COSCINOQUINOL]	> 100 µg/mL	25 µg/mL (≈ 55.5 µM)	> 100 µg/mL	> 100 µg/mL	8 µM	> 200 µM	44 µM	3.25 µg/mL (≈ 7.21 µM)	25 µg/mL (≈ 55.5 µM)	> 100 µg/mL	> 100 µg/mL	> 200 µM	6.25 µg/mL (≈ 13.9 µM)	> 100 µg/mL
COc1cccc2c1C(=O)c1c(O)c3c(c(O)c1C2=O)C[C@@](O)(C(=O)CO)C[C@@H]3O[C@H]1C[C@H](N)[C@H](O)[C@H](C)O1 [DOXORUBICIN]	–	–	–	–	13 µM	–	–	–	–	–	–	–	–	–
CC1=CC[C@H]2C(C)(C)CCC[C@]2(C)[C@H]1C[C@@H](OS(=O)(=O)[O-])[C@H](C)CCC/C(C)=C/Cc1cc(O)ccc1O.[Na+] [HALISULFATE 1]	> 100 µg/mL	–	> 100 µg/mL	50 µg/mL	> 200 µM	19 µM	3 µM	3.13 µg/mL	–	> 100 µg/mL	> 100 µg/mL	36 µM	–	> 100 µg/mL
CC1=CCC[C@@H](C)[C@]1(C)CC/C(C)=C/CCC(CCCc1ccoc1)COS(=O)(=O)[O-].[Na+] (stereo partly drawn) [HALISULFATE 2]	> 100 µg/mL	> 100 µg/mL	> 100 µg/mL	> 100 µg/mL	> 200 µM	24 µM	5 µM	6.25 µg/mL	> 100 µg/mL	> 100 µg/mL	> 100 µg/mL	> 200 µM	25 µg/mL	> 100 µg/mL
CC1(C)CCC[C@]2(C)[C@H]3CC/C(=C\OS(=O)(=O)[O-])[C@H](CCc4ccoc4)[C@@]3(C)CC[C@@H]12.[Na+] [SUVANINE'S SODIUM SALT]	> 100 µg/mL	25 µg/mL	> 100 µg/mL	25 µg/mL	16 µM	5 µM	9 µM	1.56 µg/mL	50 µg/mL	> 100 µg/mL	> 100 µg/mL	> 200 µM	25 µg/mL	> 100 µg/mL
CC1(C)CCC[C@]2(C)[C@H]3CC/C(=C\OS(=O)(=O)[O-])[C@H](CCc4ccoc4)[C@@]3(C)CC[C@@H]12.C[N+](C)=C(N)N [SUVANINE]	> 100 µg/mL	> 100 µg/mL	> 100 µg/mL	100 µg/mL	> 200 µM	17 µM	8 µM	1.56 µg/mL	50 µg/mL	> 100 µg/mL	> 100 µg/mL	> 200 µM	> 100 µg/mL	> 100 µg/mL
